Publication PMC10778758, “Dithioethanol (DTE)-Conjugated Deoxyribose Cyclic Dinucleotide Prodrugs (DTE-dCDNs) as STING Agonist” (International Journal of Molecular Sciences, 2023)

Tests used:
THP1-Lucia cells [1] = assay: Luciferase activity in THP1-Lucia cells pretreated with STING or TBK1 inhibitor; assay type: cell-based; conditions: inhibitor 10 μM pretreated 1 h, prodrug 9 10 μM, 24 h
Description: The endogenous 2′,3′-cGAMP was set as the positive control group. H-151 [26] and BX795 [27] were selected to use as the STING inhibitor and TBK1 inhibitor, respectively.
Figure 6 Prodrug 9 activated the IFN-β promoter responsive luciferase expression through STING signaling pathway. Prodrug 9 (10 μM) and 2′,3′-cGAMP (10 μM) were added to THP1-Lucia cells alone or pretreated with vehicle or H-151 (10 μM), BX795 (10 μM) for 1 h, respectively. The luciferase activity was measured with Quanti-Luc reagent via a 24 h incubation at 37 °C. Data are presented as mean ± SD, n = 3.

CT-26 cells = assay: RT-qPCR of IFN-β mRNA in CT-26 cells; assay type: cell-based; conditions: CT-26, prodrug 9 and ADU-S100 10 μM, CDNs 100 μM, 4 h
Description: Real-time quantitative PCR (RT-qPCR). The mRNA expression levels of diverse cytokines were measured using quantitative RT-PCR (RT-qPCR) assays. THP-1 cells or CT26 cells were incubated with the compounds for 4 h, subsequently harvested for RNA isolation according to the manufacturer’s instructions of RNApure Tissue&Cell Kit (DNase I) (CWBIO, Cambridge, MA, USA catalogue no. CW0560S). Next, 1 μg RNA was reversely transcribed to cDNA by TransScript All-in-One First-Strand cDNA Synthesis SuperMix for qPCR (One-Step gDNA Removal) (TransGen, Beijing, China). To examine the mRNA levels, real-time PCR was performed in a CFX96 Real-Time PCR system (Bio-RAD, Hercules, CA, USA) using PerfectStart Green qPCR Super Mix (TransGen) and primers (Sangon Biotech, Shanghai, China). The expression level was calculated according to the formula (2^−∆∆Ct) using the GAPDH or β-actin as the internal reference gene and the relative gene expression fold was normalized to the DMSO-treated cells. The THP-1 and CT26 cell lines were obtained from American Type Culture Collection (ATCC, Manassas, VA, USA). […]
expression levels of IFN-β were assessed by real-time quantitative PCR (qPCR) under the treatment of prodrug 9 (10 μM), 3′,3′-c-di-dAMP (100 μM), 2′,3′-cGAMP (100 μM) and ADU-S100 (10 μM) for 4 h.
Figure S3. […]
levels of IFN-β were assessed by an enzyme-linked immunosorbent assay (ELISA). […]

[2] = In vitro serum stability assay in 20% fetal bovine serum; assay type: in vitro ADME; conditions: 100 μM, 20% FBS, 37 °C
Description: In vitro serum stability assay. Each compound (100 μM) was incubated at 37 °C in the reaction buffer including 20% fetal bovine serum (FBS, GIBCO, Thermo Fisher Scientific, Waltham, MA, USA), 10 mM PBS (pH 7.4), and 1 mM MgCl2. At various times, aliquots of the reaction mixture were collected and stopped by adding 50 μL MeCN and diluted with 50 μL water. The reaction mixture was then centrifuged at 10,000 rpm for 5 min, leaving 100 μL supernatant for the HPLC assay. An amount of 10 μL of each aliquot was injected directly into HPLC (Agilent 1260 Infinity HPLC equipped with a UV detector; column Agilent ZORABX SB-C18 5 μm [4.6 × 150 mm; detection at 254 nm; column temperature 25 °C] for analysis. Amounts of 10 mM TEAA buffer (solvent A) and MeCN (solvent B) were used as the mobile phase with a flow rate of 1 mL/min. The gradient was set as the following: 0–2 min: 98% A/2% B; 2–6 min: 98% A/2% B to 100% B; 6–10 min: 100% B; 10–13 min: 100% B to 98% A/2% B; 13–15 min: 98% A/2% B. The % remaining of the test compounds after incubation in the serum was then calculated.
Figure 4 Parent dCDN of DTE-dCDN prodrug 9 retained a high serum stability. The serum stability analysis of (a) prodrug 9, (b) 3′,3′-c-di-dAMP, (c) 2′,3′-cGAMP and (d) ADU-S100 were determined in 20% FBS. Each compound (100 μM) was incubated in 20% FBS at 37 °C. At various times (0, 2, 4, 8, 12, 24, 48, 72 h), aliquots of the reaction mixture were analyzed with HPLC at 254 nm. The % remaining of test compounds after incubation in serum was calculated.

THP1-Lucia cells [3] = assay: THP1-Lucia cell-based luciferase reporter assay; conditions: 24 h
Description: THP1-Lucia cell-based reporter assay. THP1-Lucia cells were seeded into a 24-well plate at a density of 5 × 10^4 cells/well. […] Finally, the medium was collected to determine the luciferase activity using QUANTI-Luc (InvivoGen, San Diego, CA, USA) according to the manufacturer′s instruction to calculate the EC50 values of the tested compounds. The results are expressed as the mean ± SD from three independent experiments. Emax values were normalized to the response induced by 2′,3′-cGAMP in each assay and expressed as a mean percentage ± SD from three independent experiments. The THP1-Lucia cell line was obtained from Prof. Junmin Quan from Peking University (Beijing, China).
Figure 5 The luciferase-based assay in the THP1-Lucia reporter cell line. (a) EC50 values represent the mean (±SD) of three independent experiments. (b) Emax values represent the mean (±SD) of three independent experiments.

THP-1 cells = assay: Uptake of DTE-dCDN prodrug, intracellular levels by LC/MS/MS; conditions: THP-1 cells treated with 100 μM 3′,3′-c-di-dAMP, within 6 h
Description: Uptake of DTE-dCDN Prodrug. THP-1 cells were seeded at a concentration of 5 × 10^6 cells/mL into a 12-well plate. After 16 h of incubation at 37 °C in a 5% CO2 atmosphere, the compounds were added to cell cultures and the cells were collected at time points of 1 h, 2 h, 4 h, 6 h, 8 h, 12 h, and 24 h by centrifugation for 1 min at 1000× g. The media was removed completely, and the cells were washed twice with 800 μL of ice-cold PBS before being lysed with 400 μL ice-cold 70% methanol. Lysates were incubated overnight at −20 °C and then centrifuged for 20 min at 13,000× g to remove cellular debris. The supernatant was analyzed via LC/MS/MS (Agilent 1290 Infinity II/6470A)
(a) The intracellular concentration of the prodrug 9 in THP-1 cells. (b) The intracellular concentration of the parent dCDN (3′,3′-c-di-dAMP) in THP-1 cells. THP-1 cells were treated with 10 μM prodrug 9 or 100 μM parent dCDN (3′,3′-c-di-dAMP) for the indicated period of time (1, 2, 4, 6, 8, 12, 24 h), and the intracellular concentration of the metabolites in cellular extracts was determined with liquid chromatograph MS/MS analysis.

Structure (SMILES)	effect on induction of luciferase expression by prodrug 9 (THP1-Lucia cells [1])	T1/2 (half-life period) [2] [h]	degraded at 72 h [2]	further results
CCc1ccc(NC(=O)Nc2c[nH]c3ccccc23)cc1 [H-151]	could block the induction of the luciferase expression			
Nc1ncnc2c1ncn2[C@@H]1O[C@@H]2COP(=O)([S-])O[C@@H]3[C@H](O)[C@@H](COP([O-])(=S)O[C@H]2[C@H]1O)O[C@H]3n1cnc2c(N)ncnc21.[Na+].[Na+] (stereo partly shown) [ADU-S100, reference compound]		67		induction of IFN-β transcription in CT-26 cells (CT-26 cells): no significant induction
Nc1ncnc2c1ncn2[C@H]1C[C@@H]2OP(=O)(O)OC[C@H]3O[C@@H](n4cnc5c(N)ncnc54)C[C@@H]3OP(=O)(O)OC[C@H]2O1 [3′,3′-c-di-dAMP]		> 72	did not show any degradation	EC50 (THP1-Lucia cells [3]): 41.3 µM; intracellular levels of the parent dCDN 3′,3′-c-di-dAMP (THP-1 cells): not detectable
Nc1nc2c(ncn2[C@@H]2O[C@@H]3COP(=O)(O)O[C@H]4[C@@H](O)[C@H](n5cnc6c(N)ncnc65)O[C@@H]4COP(=O)(O)O[C@@H]2[C@@H]3O)c(=O)[nH]1 [2′,3′-cGAMP]		31	80%	
O=C(NCCCNc1nc(Nc2cccc(NC(=O)N3CCCC3)c2)ncc1I)c1cccs1 [BX795]	could block the induction of the luciferase expression			
